From publication PMC9782626, “Copper(II) Complexes of 5–Fluoro–Salicylaldehyde: Synthesis, Characterization, Antioxidant Properties, Interaction with DNA and Serum Albumins” (Molecules, 2022)

Molecular target: T1, human serum albumin (HSA) (Homo sapiens, UniProt P02768)
T1 construct: purchased Sigma–Aldrich Co
Experiment: Albumin binding by tryptophan fluorescence quenching (HSA)
Conditions: for ΔΙ/Ιο, quenching of the HSA fluorescence: HSA 3 μM, λex 295 nm; for % relative HSA fluorescence emission intensity I/Io remaining (% of initial): final value, pH 7.0; for HSA-binding constant K: Scatchard equation; for HSA-quenching constant kq: from Stern–Volmer plots, τo 10^-8 s
Excerpt: Serum albumins are among the important proteins of the circulatory system. Their main role is to carry drugs and other bioactive small molecules through the bloodstream. BSA and HSA are structurally homologous albumins, having two and one tryptophan residues, respectively. The tryptophan residues of both albumins are responsible for the intense fluorescence emission band with λem,max = 342 nm for BSA and 350 nm for HSA, respectively, when their solutions are excited at 295 nm. […] The inner-filter effect was calculated with Equation (S4) and it was found too low to affect the measurements.
When the compounds were added to a solution of the albumins (3 μM), a significant quenching of the BSA (λem = 342 nm) and HSA (λem = 350 nm) fluorescence emission bands was observed (Figure 7) which was more pronounced in the case of BSA (Table 7 and Figure 8). […] The observed quenching may be ascribed to changes in the tryptophan environment of SA resulting from possible denaturation of their secondary structure, induced by the binding of the complexes to the albumins. […]
Io =1+ k τ [Q] =1+ K [Q] […]
S3Albumin -binding studies
In order to investigate if the compounds can bind to carrier proteins like serum albumins, we carried out albumin binding study by tryptophan fluorescence quenching experiments using bo vine serum albumin (BSA, 3 μM) in buffer (containing 15 mM trisodium citrate and 150 mM NaCl at pH 7.0). The quenching of the emission intensity of tryptophan residues of BSA at 343 nm was monitored using the co mpounds as que ncher s with increasing concentration [S4]. The fluo rescence emission spectra of the compounds were also recorded with λex = 295 nm. No fluorescence emission band was recorded and thus it was not related to the compounds . The influence of the inner-filter effect [S6] on the measurements wa s evaluated by equation S4.
Where Icorr = corrected intensity, Imeas = the measured intensity, c = the concentration of the quencher, d = the cuvette (1 cm), ε (λexc ) and ε(λe m) = the ε of the quencher at the excitation and the emission wavelength, respectively, as calculated from the UV-vis spectra of the […]
The Stern-Volmer and Scatchard graphs are used to study the interaction of the compounds with serum albumins. According to Stern-Volmer quenching equation (eq.
S2), where Io = the initial tryptophan fluorescence intensity of SA, I = the tryptophan fluorescence intensity of SA after the addition of the quencher, kq = the quenching […]
constant, KSV = the Stern-Volmer constant, τo = the average lifetime of SA without the quencher, and, tak ing as fluorescence lifet ime (τo) of tryptophan in SA at around 10-8 s [S 4] , KSV (in M -1) can be obtained by the slope of the diagram Io/I versus [compound] (Stern-Volmer plots), and subsequently the quenching (kq, in M -1s-1) may be calculated from eq.
From the Scatchard equation (eq. S5): […]
where n is the number of binding sites per albumin and K is the SA-binding constant (K, in M -1) is calculated from the slope in plots (ΔI/Io)/[complex] versus ΔI/Io and n is given by the ratio of y intercept to the slope [S7].
S1 Kontogiorgis, C.; Hadjipavlou–Lit ina, D. Biological Evaluat ion of Several Coumarin Derivatives Designed as Possible Anti–inflammatory/Antioxidant Agents. J. Enz. Inhib.
S2 Ruch, R.J.; Cheng, C.; Klaunig, J.E. Prevention of cytotoxicity and inhibition of intercellular communication by antioxidant catechins isolated from Chinese green tea.
S3 Wolfe, A.; Shimer, G.; Meehan, T. Polycyclic Aromatic Hydrocarbons Physically Intercalate into Duplex Regions of Denatured DNA. Biochemistry 1987, 26, 6392–6396.
S4 Lakowicz, J.R. Principles of Fluorescence Spectroscopy , 3rd ed.; Plenum Press: New […]
S5 Heller, D.P.; Greenstock, C.L. Fluorescence lifetime analysis of DNA intercalated ethid ium bromide and quench ing by free dye. Biophys. Chem.1994,50, 305–312.
S6 Stella, L.; Capodilupo, A.L.; Bietti, M. A reassessment of the association between […]
azulene and [60]fullerene. […]

T1 sequence (P02768 25-609): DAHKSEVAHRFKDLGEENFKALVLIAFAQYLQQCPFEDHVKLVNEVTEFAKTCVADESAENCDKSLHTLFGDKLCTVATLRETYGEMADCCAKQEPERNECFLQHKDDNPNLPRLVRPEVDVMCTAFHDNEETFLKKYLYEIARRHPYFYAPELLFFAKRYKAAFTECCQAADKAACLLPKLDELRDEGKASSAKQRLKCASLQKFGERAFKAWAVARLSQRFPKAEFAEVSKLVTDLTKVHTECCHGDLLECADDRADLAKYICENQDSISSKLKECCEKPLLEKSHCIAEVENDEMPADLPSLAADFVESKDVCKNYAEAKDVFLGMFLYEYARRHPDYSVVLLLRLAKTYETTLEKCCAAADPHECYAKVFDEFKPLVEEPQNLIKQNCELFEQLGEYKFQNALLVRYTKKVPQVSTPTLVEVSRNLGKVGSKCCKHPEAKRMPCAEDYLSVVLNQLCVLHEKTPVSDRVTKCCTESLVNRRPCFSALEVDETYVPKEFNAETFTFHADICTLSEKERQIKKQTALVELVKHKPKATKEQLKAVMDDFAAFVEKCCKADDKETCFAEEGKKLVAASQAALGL

Row | Compound | ΔΙ/Ιο, quenching of the HSA fluorescence | % relative HSA fluorescence emission intensity I/Io remaining (% of initial) | HSA-binding constant K | HSA-quenching constant kq
1 | O=Cc1cc(F)ccc1[O-].O=Cc1cc(F)ccc1[O-].[Cu+2] [Complex 1, [Cu(5–F–salo)2]] | 61.3% | 38.7% | 1.58 (±0.09) × 10^5 M^−1 | 4.37 (±0.18) × 10^12 M^−1 s^−1
2 | O=Cc1cc(F)ccc1[O-].O=[N+]([O-])[O-].[Cu+2].c1cnc2c(c1)ccc1cccnc12 [Complex 4, [Cu(5–F–salo)(phen)(NO3)]] | 74.6% | 25.5% | 1.70 (±0.09) × 10^6 M^−1 | 8.63 (±0.33) × 10^12 M^−1 s^−1
3 | O=Cc1cc(F)ccc1[O-].[Cl-].[Cu+2].c1ccc(Nc2ccccn2)nc1 [Complex 2, [Cu(5–F–salo)(bipyam)Cl]] | 62.7% | 37.3% | 5.09 (±0.29) × 10^5 M^−1 | 6.27 (±0.21) × 10^12 M^−1 s^−1
4 | O=Cc1cc(F)ccc1[O-].O=[N+]([O-])[O-].[Cu+2].c1ccc(-c2ccccn2)nc1 [Complex 5, [Cu(5–F–salo)(bipy)(NO3)]] | 63.0% |  | 1.31 (±0.05) × 10^6 M^−1 | 3.01 (±0.10) × 10^12 M^−1 s^−1
5 | CO.Cc1ccc2ccc3ccc(C)nc3c2n1.O=Cc1cc(F)ccc1[O-].[Cl-].[Cu+2] [Complex 3, [Cu(5–F–salo)(neoc)Cl].CH3OH] | 68.5% | 31.5% | 7.16 (±0.40) × 10^5 M^−1 | 1.25 (±0.05) × 10^13 M^−1 s^−1
